Reference: patent US20230203043A1, “NOVEL IMIDAZOPYRAZINE DERIVATIVES” (Hoffmann-La Roche Inc., priority 2020, published 2023)
Where a name gives a salt, the structure may show the parent alone. Read-outs that look alike come from different tables or passages of the source.

Test system: Acinetobacter baumannii ATCC17961
Experiment: Antimicrobial susceptibility testing: 90% growth inhibitory concentration (IC90) determination in Iso-Sensitest broth, OD600 growth
Assay type: cell-based
Procedure, shortened: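 Each strain, at about 5×10^(5) CFU/ml, was incubated with twofold dilutions of compound at 35±2° C for 16 h, and IC90 was calculated from kinetic optical density measured at 600 nm during logarithmic growth.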

[1] = Acinetobacter baumannii, ATCC17961, 16 h, strain ATCC 17961, OD600 growth over 16 h, read-out: A. baumannii ATCC 17961 IC90
[2] = Acinetobacter baumannii, ATCC17961, 16 h, read-out: A. baumannii ATCC 17961 IC90 (uM), strain ATCC 17961, OD600 growth over 16 h
[3] = strain ATCC 17961, OD600 growth over 16 h, read-out: A. baumannii ATCC 17961 IC90

Compound | IC90 [1] [µM] | IC90 [2] [µM] | other results
NCCCC(=O)NCCNC(=O)c1ccc(Nc2nccn3c(-c4c[nH]nc4C(F)(F)F)cnc23)cc1Cl [Example 300, N-[2-(4-aminobutanoylamino)ethyl]-2-chloro-4-[[3-[3-(trifluoromethyl)-1H-pyrazol-4-yl]imidazo[1,2-a]pyrazin-8-yl]amino]benzamide] | 0.905 |  | 
O=C(c1ccc(Nc2nccn3c(-c4cn(Cc5cncnc5)nc4C(F)(F)F)cnc23)cc1Cl)N1CCNCC1 [Example 182, [2-chloro-4-[[3-[1-(pyrimidin-5-ylmethyl)-3-(trifluoromethyl)pyrazol-4-yl]imidazo[1,2-a]pyrazin-8-yl]amino]phenyl]-piperazin-1-ylmethanone formate] |  | 0.368 | 
C[C@H](NC(=O)c1ccc(Nc2nccn3c(-c4c[nH]nc4C(F)(F)F)cnc23)cc1Cl)C(=O)N[C@H]1CCNC1 [Example 127, 2-chloro-N-[(2S)-1-oxo-1-[[(3S)-pyrrolidin-3-yl]amino]propan-2-yl]-4-[[3-[3-(trifluoromethyl)-1H-pyrazol-4-yl]imidazo[1,2-a]pyrazin-8-yl]amino]benzamide formate] |  | > 5 | 
O=C(c1ccc(Nc2nccn3c(-c4cn(CC(F)F)nc4C(F)(F)F)cnc23)cc1Cl)N1CC2(C1)CN(C(=O)[C@@H]1CCCN1)C2 [Example 635, (S)-(2-chloro-4-((3-(1-(2,2-difluoroethyl)-3-(trifluoromethyl)-1H-pyrazol-4-yl)imidazo[1,2-a]pyrazin-8-yl)amino)phenyl)(6-prolyl-2,6-diazaspiro [3.3]heptan-2-yl)methanone] | 0.22 |  | 
CCc1cc(Nc2nccn3c(-c4cn(CC#N)nc4C(F)(F)F)cnc23)ccc1C(=O)N[C@H](C)C(=O)N1CCNCC1 [Example 678, 4-[[3-[1-(cyanomethyl)-3-(trifluoromethyl)pyrazol-4-yl]imidazo[1,2-a]pyrazin-8-yl]amino]-2-ethyl-N-[(1R)-1-methyl-2-oxo-2-piperazin-1-yl-ethyl]benzamide formate] |  | 0.321 | 
CCc1cc(Nc2nccn3c(-c4c[nH]nc4C(F)(F)F)cnc23)ccc1C(=O)NCC(=O)N1CCNCC1 [Example 753, 2-ethyl-N-(2-oxo-2-piperazin-1-yl-ethyl)-4-[[3-[3-(trifluoromethyl)-1H-pyrazol-4-yl]imidazo[1,2-a]pyrazin-8-yl]amino] benzamide formate] | 0.659 |  | 
CCc1cc(Nc2nccn3c(-c4cn(CC(F)F)nc4C(F)(F)F)cnc23)ccc1C(=O)NCC(=O)N[C@@H]1CCNC1 [Example 648, 4-[[3-[1-(2,2-difluoroethyl)-3-(trifluoromethyl)pyrazol-4-yl]imidazo[1,2-a]pyrazin-8-yl]amino]-2-ethyl-N-[2-oxo-2-[[(3R)-pyrrolidin-3-yl]amino]ethyl] benzamide formate] | 0.246 |  | 
CCc1cc(Nc2nccn3c(-c4cn(CC(F)F)nc4C(F)(F)F)cnc23)ccc1C(=O)NCCCNC(=O)[C@@H]1C[C@@H](O)CN1 [Example 727, (2S,4R)-N-(3-(4-((3-(1-(2,2-difluoroethyl)-3-(trifluoromethyl)-1H-pyrazol-4-yl)imidazo[1,2-a]pyrazin-8-yl)amino)-2-ethylbenzamido)propyl)-4-hydroxypyrrolidine-2-carboxamide] | 0.465 |  | 
CCc1cc(Nc2nccn3c(-c4cn(CC#N)nc4C(F)(F)F)cnc23)ccc1C(=O)NCCNC(=O)C1CCNCC1 [Example 486, N-(2-(4-((3-(1-(cyanomethyl)-3-(trifluoromethyl)-1H-pyrazol-4-yl)imidazo[1,2-a]pyrazin-8-yl)amino)-2-ethylbenzamido)ethyl)piperidine-4-carboxamide formate] | 0.208 |  | 
CCc1cc(Nc2nccn3c(-c4c[nH]nc4C(F)(F)F)cnc23)ccc1C(=O)NCC(=O)N1CCC(N)CC1 [Example 756, N-[2-(4-amino-1-piperidyl)-2-oxo-ethyl]-2-ethyl-4-[[3-[3-(trifluoromethyl)-1H-pyrazol-4-yl]imidazo[1,2-a]pyrazin-8-yl]amino]benzamide formate] |  | 0.679 | 
4-[[3-[1-(2-cyanomethyl)-3-(trifluoromethyl)pyrazol-4-yl]imidazo[1,2-a]pyrazin-8-yl]amino]-2-ethyl-N-methylbenzamide [Example 337] |  |  | IC90 [3]: 0.359 µM
CCc1cc(Nc2nccn3c(-c4cn(CCF)nc4C(F)F)cnc23)ccc1C(=O)N1CCN(C(=O)[C@@H](C)N)CC1 [Example 796, (R)-2-amino-1-(4-(4-((3-(3-(difluoromethyl)-1-(2-fluoroethyl)-1H-pyrazol-4-yl)imidazo[1,2-a]pyrazin-8-yl)amino)-2-ethylbenzoyl)piperazin-1-yl)propan-1-one] | 2.25 |  | 
CCc1cc(Nc2nccn3c(-c4cn(CC#N)nc4C(F)(F)F)cnc23)ccc1C(=O)NCCOCC(C)(C)N [Example 60, N-[2-(2-amino-2-methylpropoxy)ethyl]-4-[[3-[1-(cyanomethyl)-3-(trifluoromethyl)pyrazol-4-yl]imidazo[1,2-a]pyrazin-8-yl]amino]-2-ethylbenzamide] | 0.23 |  | 
NC1CC(NC(=O)c2ccc(Nc3nccn4c(-c5c[nH]nc5C(F)(F)F)cnc34)cc2Cl)C1 (stereo not shown) [Example 384, N-(3-aminocyclobutyl)-2-chloro-4-[[3-[3-(trifluoromethyl)-1H-pyrazol-4-yl]imidazo[1,2-a]pyrazin-8-yl]amino]benzamide] |  |  | IC90 [3]: 0.833 µM
Cc1cc(Nc2nccn3c(-c4cn(CC#N)nc4C(F)(F)F)cnc23)ccc1C(=O)N1CCN(C(=O)[C@@H]2C[C@@H](O)CN2)CC1 [Example 422, formic acid; 2-[4-[8-[4-[4-[(2S,4R)-4-hydroxypyrrolidine-2-carbonyl]piperazine-1-carbonyl]-3-methylanilino]imidazo[1,2-a]pyrazin-3-yl]-3-(trifluoromethyl)pyrazol-1-yl]acetonitrile] |  | 0.63 | 
Cc1cc(Nc2nccn3c(-c4cn(CC#N)nc4C(F)(F)F)cnc23)ccc1C(=O)N[C@H](C)C(=O)N1CC[C@@H](N)C1 [Example 761, N-[(1R)-2-[(3R)-3-aminopyrrolidin-1-yl]-1-methyl-2-oxo-ethyl]-4-[[3-[1-(cyanomethyl)-3-(trifluoromethyl)pyrazol-4-yl]imidazo[1,2-a]pyrazin-8-yl]amino]-2-methyl-b enzamide formate] |  | 0.721 | 
N[C@H]1CC[C@H](C(=O)N2CCN(C(=O)c3ccc(Nc4nccn5c(-c6c[nH]nc6C(F)(F)F)cnc45)cc3Cl)CC2)C1 [Example 575, (4-((1S,3S)-3-aminocyclopentane-1-carbonyl)piperazin-1-yl)(2-chloro-4-((3-(3-(trifluoromethyl)-1H-pyrazol-4-yl)imidazo[1,2-a]pyrazin-8-yl)amino)phenyl)methanone formate] |  | 0.175 | 
Cc1cc(Nc2nccn3c(-c4cn(CC#N)nc4C(F)(F)F)cnc23)ccc1C(=O)N1CCN(C(=O)[C@@H]2CCNC[C@H]2O)CC1 [Example 380, formic acid; 2-[4-[8-[4-[4-[(3S,4R)-3-hydroxypiperidine-4-carbonyl]piperazine-1-carbonyl]-3-methylanilino]imidazo[1,2-a]pyrazin-3-yl]-3-(trifluoromethyl)pyrazol-1-yl]acetonitrile] |  | 0.623 | 
Cc1cc(Nc2nccn3c(-c4c[nH]nc4C(F)(F)F)cnc23)ccc1C(=O)N1CCN(C(=O)[C@@H]2C[C@@H](O)CN2)CC1 [Example 479, [4-[(2S,4R)-4-hydroxypyrrolidine-2-carbonyl]piperazin-1-yl]-[2-methyl-4-[[3-[3-(trifluoromethyl)-1H-pyrazol-4-yl]imidazo[1,2-a]pyrazin-8-yl]amino]phenyl]methanone hydrochloride] | 0.624 |  | 
CCc1cc(Nc2nccn3c(-c4cn(CC(N)=O)nc4C(F)(F)F)cnc23)ccc1C(=O)NCCOCCN [Example 316, N-[2-(2-aminoethoxy)ethyl]-4-[[3-[1-(2-amino-2-oxoethyl)-3-(trifluoromethyl)pyrazol-4-yl]imidazo[1,2-a]pyrazin-8-yl]amino]-2-ethylbenzamide formate] |  | 1.52 | 
O=C(CN1CCN(C(=O)c2ccc(Nc3nccn4c(-c5cn(CC(F)F)nc5C(F)(F)F)cnc34)cc2Cl)CC1)NC1CNC1 [Example 599, N-(azetidin-3-yl)-2-(4-(2-chloro-4-((3-(1-(2,2-difluoroethyl)-3-(trifluoromethyl)-1H-pyrazol-4-yl)imidazo[1,2-a]pyrazin-8-yl)amino)benzoyl)piperazin-1-yl)acetamide formate] |  | 0.522 | 
NC1CN(C(=O)N2CCN(C(=O)c3ccc(Nc4nccn5c(-c6c[nH]nc6C(F)(F)F)cnc45)cc3Cl)CC2)C1 [Example 266, [4-(3-aminoazetidine-1-carbonyl)piperazin-1-yl]-[2-chloro-4-[[3-[3-(trifluoromethyl)-1H-pyrazol-4-yl]imidazo[1,2-a]pyrazin-8-yl]amino]phenyl] methanone formate] |  | 0.282 | 
Cc1cc(Nc2nccn3c(-c4c[nH]nc4C(F)(F)F)cnc23)cc(F)c1C(=O)N[C@H](C)CN [Example 83, N-[(2R)-1-aminopropan-2-yl]-2-fluoro-6-methyl-4-[[3-[3-(trifluoromethyl)-1H-pyrazol-4-yl]imidazo[1,2-a]pyrazin-8-yl]amino]benzamide] | 2.46 |  | 
CCc1cc(Nc2nccn3c(-c4cn(CC(F)F)nc4C(F)(F)F)cnc23)ccc1C(=O)NCCNC(=O)CCN [Example 536, N-(2-(3-aminopropanamido)ethyl)-4-((3-(1-(2,2-difluoroethyl)-3-(trifluoromethyl)-1H-pyrazol-4-yl)imidazo[1,2-a]pyrazin-8-yl)amino)-2-ethylbenzamide formate] |  | 0.145 | 
Cc1cc(Nc2nccn3c(-c4cn(CC#N)nc4C(F)(F)F)cnc23)ccc1C(=O)NCC(=O)N1CCNCC1 [Example 706, 4-[[3-[1-(cyanomethyl)-3-(trifluoromethyl)pyrazol-4-yl]imidazo[1,2-a]pyrazin-8-yl]amino]-2-methyl-N-(2-oxo-2-piperazin-1-yl-ethyl) benzamide formate] | 0.394 |  | 
